Data on one molecule can be found in US8058437B2, “(Pyrroloquinoxalinyl) pyrazinecarbohydrazide-oxalic acid co-crystal for treatment of cancer and other diseases” (Novelix Pharmaceuticals, Inc., priority 2008, dated 2011).

The data set can be described thus: Salt formation experiments / physical characteristics of solid forms. The settings on record: solid hydrochloride salt. Type of data set: physicochemical. The method, then:
Thus, a series of experiments was conducted to assess the preparation of NVX-144 salts of acids other than hydrochloric acid as possible novel compounds better suited to pharmaceutical preparations. […] As expected, NVX-144 base readily formed salts with strong organic acids.
Although oxalic acid co-crystals are rare, Trask et al. have reported a co-crystal of caffeine with oxalic acid (see Trask et al., “Pharmaceutical Cocrystallization: Engineering a Remedy for Caffeine Hydration,” Crystal Growth & Design, 5, 1013-21 (2005)).
Thus NVX-144 would not be expected to form a salt with oxalic acid, a relatively strong dicarboxylic acid.

Turning to `Cl.O=C(NNc1nc2cc(F)ccc2n2cccc12)c1cnccn1` [NVX-144.HCl, N′-(7-fluoropyrrolo[1,2a]quinoxalin-4-yl)pyrazine-2-carbohydrazide hydrochloride], the “physical characteristics of crystals” value is “fluffy, statically-charged, hygroscopic crystals”.
